The target of assay [1] is cGMP-specific 3',5'-cyclic phosphodiesterase (Homo sapiens, UniProt O76074). Briefly: Inhibition of human PDE5A1 catalytic domain (535 to 860) expressed in Escherichia coli BL21 using [3H]-cAMP/[3H]-cGMP after 15 mins by liquid scintillation counting.
Assay [2] has as its target High affinity cGMP-specific 3',5'-cyclic phosphodiesterase 9A (Homo sapiens, UniProt O76083). Briefly: Inhibition of human PDE9A2 catalytic domain (181 to 506) expressed in Escherichia coli BL21 using [3H]-cAMP/[3H]-cGMP after 15 mins by liquid scintillation counting.
Assay [3] concerns the target 3',5'-cyclic-AMP phosphodiesterase 4B (Homo sapiens, UniProt Q07343). Briefly: Inhibition of human PDE4B2 catalytic domain and UCR2 (92 to 521) expressed in Escherichia coli BL21 using [3H]-cAMP/[3H]-cGMP after 15 mins by liquid scintillation counting.
Assay [4] deals with 3',5'-cyclic-AMP phosphodiesterase 4D (Homo sapiens, UniProt Q08499). Briefly: Inhibition of human PDE4D2 catalytic domain (86 to 413) expressed in Escherichia coli BL21 using [3H]-cAMP/[3H]-cGMP after 15 mins by liquid scintillation counting.
Sequence of 3',5'-cyclic-AMP phosphodiesterase 4D (Q08499 whole entry, the tested form may be a part): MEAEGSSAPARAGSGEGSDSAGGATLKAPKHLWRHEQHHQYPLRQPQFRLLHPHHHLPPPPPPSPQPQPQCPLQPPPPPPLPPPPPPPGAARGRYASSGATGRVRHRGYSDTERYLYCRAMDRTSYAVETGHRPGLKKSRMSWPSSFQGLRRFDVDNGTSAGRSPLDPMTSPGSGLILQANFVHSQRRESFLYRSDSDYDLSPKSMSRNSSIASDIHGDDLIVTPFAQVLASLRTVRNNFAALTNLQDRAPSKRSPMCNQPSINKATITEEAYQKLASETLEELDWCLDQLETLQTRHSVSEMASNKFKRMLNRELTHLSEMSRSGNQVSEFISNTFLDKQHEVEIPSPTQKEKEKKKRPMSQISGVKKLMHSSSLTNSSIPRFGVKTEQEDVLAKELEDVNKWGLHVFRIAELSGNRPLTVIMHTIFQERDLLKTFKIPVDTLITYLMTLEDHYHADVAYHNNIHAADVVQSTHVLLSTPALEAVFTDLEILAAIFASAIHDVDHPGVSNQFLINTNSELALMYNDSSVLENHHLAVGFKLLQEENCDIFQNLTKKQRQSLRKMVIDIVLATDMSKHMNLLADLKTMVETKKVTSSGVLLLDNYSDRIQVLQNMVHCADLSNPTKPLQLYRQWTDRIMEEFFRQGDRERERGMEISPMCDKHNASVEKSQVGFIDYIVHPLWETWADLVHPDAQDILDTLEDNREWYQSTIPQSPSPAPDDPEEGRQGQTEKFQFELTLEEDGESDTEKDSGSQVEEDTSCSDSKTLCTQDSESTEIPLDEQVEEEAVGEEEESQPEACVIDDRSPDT

Where only a bound is given, the exact number is not on record here.

Sequence of 3',5'-cyclic-AMP phosphodiesterase 4B (Q07343 whole entry, the tested form may be a part): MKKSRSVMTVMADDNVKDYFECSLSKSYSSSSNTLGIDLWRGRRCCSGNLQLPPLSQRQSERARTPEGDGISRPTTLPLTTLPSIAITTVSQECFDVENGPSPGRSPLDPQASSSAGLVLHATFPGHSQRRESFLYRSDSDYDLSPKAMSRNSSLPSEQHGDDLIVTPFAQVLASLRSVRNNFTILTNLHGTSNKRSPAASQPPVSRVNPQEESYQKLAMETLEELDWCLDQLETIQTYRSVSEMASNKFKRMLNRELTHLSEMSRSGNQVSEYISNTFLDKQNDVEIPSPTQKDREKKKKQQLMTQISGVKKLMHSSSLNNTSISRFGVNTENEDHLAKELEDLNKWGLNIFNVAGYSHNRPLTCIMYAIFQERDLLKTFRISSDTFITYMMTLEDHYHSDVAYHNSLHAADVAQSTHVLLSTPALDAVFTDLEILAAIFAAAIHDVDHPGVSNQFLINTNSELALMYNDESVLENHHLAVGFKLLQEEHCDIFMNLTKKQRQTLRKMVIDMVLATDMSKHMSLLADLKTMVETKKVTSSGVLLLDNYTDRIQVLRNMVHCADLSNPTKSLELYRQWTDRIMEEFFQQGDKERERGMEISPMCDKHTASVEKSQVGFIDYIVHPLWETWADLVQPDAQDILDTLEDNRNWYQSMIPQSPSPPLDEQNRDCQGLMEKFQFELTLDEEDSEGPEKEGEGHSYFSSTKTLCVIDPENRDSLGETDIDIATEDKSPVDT
Sequence of High affinity cGMP-specific 3',5'-cyclic phosphodiesterase 9A (O76083 whole entry, the tested form may be a part): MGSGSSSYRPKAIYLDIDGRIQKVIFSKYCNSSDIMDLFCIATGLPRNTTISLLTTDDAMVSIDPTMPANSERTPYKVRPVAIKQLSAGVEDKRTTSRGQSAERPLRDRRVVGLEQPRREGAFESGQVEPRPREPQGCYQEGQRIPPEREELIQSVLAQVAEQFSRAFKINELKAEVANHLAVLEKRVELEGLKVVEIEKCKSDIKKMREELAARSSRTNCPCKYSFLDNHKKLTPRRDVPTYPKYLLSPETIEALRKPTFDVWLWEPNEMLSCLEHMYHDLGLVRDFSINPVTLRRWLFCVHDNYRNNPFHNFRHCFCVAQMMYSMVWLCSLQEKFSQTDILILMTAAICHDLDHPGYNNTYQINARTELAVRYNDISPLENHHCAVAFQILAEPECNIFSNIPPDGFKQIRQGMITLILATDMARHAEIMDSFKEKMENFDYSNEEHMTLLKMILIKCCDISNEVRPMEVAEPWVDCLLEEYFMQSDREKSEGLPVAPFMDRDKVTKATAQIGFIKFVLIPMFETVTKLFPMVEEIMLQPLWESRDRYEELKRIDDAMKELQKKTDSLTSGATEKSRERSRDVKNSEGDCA

In the case of `CC(C)=CCc1c(O)cc(-c2cc3ccc(O)cc3o2)cc1O` [MORACIN C], the concentration for half-maximal inhibition (IC50) in assay [1] is over 50 µM; in assay [2], over 100 µM; in assay [3], 18.1 µM; in assay [4] it was 26 µM.
With `Oc1cc(O)cc(-c2cc3ccc(O)cc3o2)c1` [MORACIN M], the IC50 in assay [1] was over 40 µM; in assay [2], over 100 µM; in assay [3] it was 4.5 µM.

The values are drawn from ChEMBL document CHEMBL2016435 (Bioorg Med Chem Lett, 2012).
